Laboratory results from patent publication US9297048B2, “Antibiotic resistance profile for Neisseria gonorrhoeae and use of same in diagnosis and treatment of gonorrhea” (Medical Diagnostic Laboratories, LLC, priority 2010, dated 2016).
Like-named read-outs stand apart in the source and are kept apart here.

How the values were obtained:
[1] = test system: Neisseria gonorrhoeae strain ATCC 31426; assay: Neisseria gonorrhoeae antibiotic resistance panel assay (multiplex PCR + allele-specific primer extension); settings: concluded from mutations/genetic markers detected
Description: (§1) FIG. 1 is a flow chart summarizing the overall steps for our antibiotic resistance assay. Note that the assay involves multiplex PCRs, followed by allele-specific primer extensions and detection means (e.g., capillary electrophoresis, gel electrophoresis or DNA micro array).
(§2) DNA was isolated from either cells obtained from ATCC or clinical samples (e.g., cervical swab) using standard protocols (i.e., guanidine thiocyanate extraction). Multiplex PCR primers were designed using Beacon Designer software v5.0 (Premier Biosoft, CA). The choice of primers was determined using several parameters including primer length, primer melting temperature, primer annealing temperature and GC content. These primers were selected to avoid hairpin and primer-dimer formation (i.e., avoid possible non-specific hybridization). In our assay, we performed four (4) multiplex PCR. This permits a rapid amplification of genes via multiplex PCRs that lack interference.
(§3) Using the selected primers (Example 4), we performed multiplex allele-specific primer extension reactions. The allele-specific primer extension reaction was performed in a single vessel, which contained a total volume of 20 μl. The multiplex allele-specific reactions contained 1×PCR buffer (Invitrogen, CA), 1.25 mM MgCl2, 100 nM of each primer, 5 μM dATP, dTTP, dGTP (Invitrogen, CA), 5 μM biotin-dCTP (Invitrogen, CA), 1 U of Tsp DNA polymerase (Invitrogen, CA), and 5 μl of purified multiplex PCR products from all four (4) multiplex PCRs as templates.
(§4) Thermal cycling conditions for extension reactions were performed in a Biometra 3.0 PCR System (Biometra, Germany) programmed for an initial cycle of 1 min at 95° C. followed by 35 cycles of 30 sec at 95° C., 30 sec at 55° C., and 30 sec at 72° C. A final 10 min extension step was performed at 72° C.
(§5) Detection of allele-specific extended primers is indicative of the presence of SNP in the genes examined. Detection of allele-specific extended primers can be achieved by several methodologies. This includes gel electrophoresis, capillary electrophoresis, as well as DNA microarray. In this particular example, we illustrated the use of a DNA microarray. The working principle of a DNA microarray involves the use of microspheres to hybridize and sort out the allele-specific extended primers, and followed by their subsequent detection using an array reader. The presence of fluorescence is indicative of the presence of an allele-specific extended primer, which in turn is indicative of the presence of a SNP in the gene.
(§6) Extended allele-specific primer hybridizations were performed using oligonucleotide-labeled xMAP flow cytometric microspheres (Luminex Corp, TX) in a hybridization buffer containing 0.2 M NaCl, 0.08% sodium lauroylsarcosine, 0.1 M Tris-HCl, pH 8.0, and 4 mM EDTA pH 8.0. Reactions were carried out in a Biometra 3.0 PCR System (Biometra, Germany) programmed for a 3 min melting at 95° C. and a 15 min hybridization at 37° C.
(§7) Sorting of allele-specific extended primers hybridized to xMAP microspheres was performed using a Bio-Plex 200 (Bio-Rad, CA) flow cytometry instrument.
(§8) 1 μl Streptavidin R-phycoerythrin conjugate (SAPE) and 250 μl 1×NaCl hybridization buffer was added to each sorted xMAP microsphere. Microspheres hybridized to allele-specific extended primers containing biotin-dCTP fluoresce and were detected using the Bio-Plex 200 array reader.
(§9) Using our antibiotic resistance panel assay, we examined the antibiotic resistance profile in these six (6) Neisseria gonorrhoeae strains. The results of the panel assay are presented in graphical format which includes 30 genetic markers (i.e., 28 point mutations in eight (8) chromosomal genes in Neisseria gonorrhoeae, two (2) plasmid genes, as well as 17 alleles in controls). Normal alleles are shown by white bars, mutant alleles, confirming resistance, are shown by black bars (See, FIGS. 3-8). […]

[2] = test system: Neisseria gonorrhoeae strain ATCC 27628; assay: as above; settings: no mutations/genetic markers detected
Description: as §1, §2, §3, §4, §5, §6, §7, §8, §9

[3] = test system: Neisseria gonorrhoeae strain ATCC 19424; assay: as above; settings: no mutations/genetic markers detected
Description: as §1, §2, §3, §4, §5, §6, §7, §8, §9

[4] = test system: Neisseria gonorrhoeae strain ATCC 49981; assay: as above; settings: concluded from mutations/genetic markers detected
Description: as §1, §2, §3, §4, §5, §6, §7, §8, §9

[5] = test system: Neisseria gonorrhoeae from clinical sample 2; assay: Antibiotic resistance panel assay on cervicovaginal swab; settings: mutations in penA, gyrA, ponA, parC, porB, mtrR, rpsJ
Description: (§10) Cervicovaginal swabs were obtained using OneSwab® technology.

[6] = test system: Neisseria gonorrhoeae from clinical sample 1; assay: as above; settings: mutations in penA, ponA, porB, mtrR, rpsJ
Description: as §10
The presence of Neisseria gonorrhoeae in all three (3) clinical samples were confirmed using our panel assay in which porA was used as a Neisseria gonorrhoeae species-specific marker.

[7] = test system: Neisseria gonorrhoeae isolates containing mosaic penA; settings: cited from earlier work
[8] = test system: Neisseria gonorrhoeae strain ATCC 31953; assay: Neisseria gonorrhoeae antibiotic resistance panel assay (multiplex PCR + allele-specific primer extension); settings: concluded from mutations/genetic markers detected
Description: as §1, §2, §3, §4, §5, §6, §7, §8, §9

[9] = test system: Neisseria gonorrhoeae strain ATCC 49226; assay: as above; settings: concluded from mutations/genetic markers detected
Description: as §1, §2, §3, §4, §5, §6, §7, §8, §9

[10] = test system: Neisseria gonorrhoeae from clinical sample 3; assay: Antibiotic resistance panel assay on cervicovaginal swab; settings: mutations in penA and rpsJ

Row | Compound | Antibiotic Resistance Profile Using our Assay [1] | Antibiotic Resistance Profile Using our Assay [2] | Antibiotic Resistance Profile Using our Assay [3] | Antibiotic Resistance Profile Using our Assay [4] | level of resistance implied by panel assay [5] | level of antibiotic resistance implied by panel assay [6] | MICs ([7]; three of five mosaic penA isolates containing the G545S C-terminal mutation) | MICs ([7]; two mosaic penA isolates without the G545S C-terminal mutation) | Antibiotic Resistance Profile Using our Assay [8] | Antibiotic Resistance Profile Using our Assay [9] | level of resistance implied by panel assay [10]
1 | CC[C@H]1OC(=O)[C@H](C)[C@@H](O[C@H]2C[C@@](C)(OC)[C@@H](O)[C@H](C)O2)[C@H](C)[C@@H](O[C@@H]2O[C@H](C)C[C@H](N(C)C)[C@H]2O)[C@](C)(O)C[C@@H](C)CN(C)[C@H](C)[C@@H](O)[C@]1(C)O [azithromycin] | resistant | susceptible | susceptible | resistant | intermediate level of resistance | intermediate level of antibiotic resistance | – | – | – | – | –
2 | CO/N=C(\C(=O)N[C@@H]1C(=O)N2C(C(=O)O)=C(CSc3nc(=O)c(=O)[nH]n3C)CS[C@H]12)c1csc(N)n1 [ceftriaxone] | – | – | – | – | – | – | elevated MICs | wild-type MICs | – | – | –
3 | O=C(O)c1cn(C2CC2)c2cc(N3CCNCC3)c(F)cc2c1=O [ciprofloxacin] | resistant | susceptible | susceptible | resistant | – | – | – | – | resistant | – | –
4 | CN[C@@H]1[C@H](O)[C@H](NC)[C@H]2O[C@@]3(O)C(=O)C[C@@H](C)O[C@H]3O[C@@H]2[C@H]1O [spectinomycin] | – | susceptible | susceptible | – | – | – | – | – | – | – | –
5 | penicillin | resistant | susceptible | susceptible | resistant | high level of resistance | intermediate level of antibiotic resistance | – | – | – | resistant | low level of resistance
